# Results published in PubChem BioAssay AID248 (DTP/NCI, 2004).
# “And” between values parts separate entries of the source, which are not always exact repeats. Identical values can stand only once. Inconclusive results and toxic doses are left out.
# Tested on: L1210 leukemia ip in BDF1 mice, survival T/C
# Assay: NCI In Vivo Anticancer Drug Screen. Data for tumor model L1210 Leukemia (intraperitoneal) in B6D2F1 (BDF1) mice
# Details: higher = longer survival
# In short: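 In this screen, tumor-bearing mice given compound are compared to those given vehicle, and their survival values are reported as a treated-to-control quotient.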
# [1] = endpoint: mean survival time, dose: 100.0 mg/kg/injection, schedule: Q04DX003 (ip), vehicle: Klucel (hydroxypropylcellulose) (HPC)
# [2] = endpoint: mean survival time, dose: 200.0 mg/kg/injection, schedule: Q04DX003 (ip), vehicle: Klucel (hydroxypropylcellulose) (HPC)
# [3] = endpoint: mean survival time, dose: 400.0 mg/kg/injection, schedule: Q04DX003 (ip), vehicle: Klucel (hydroxypropylcellulose) (HPC)
# [4] = endpoint: mean survival time, dose: 100.0 mg/kg/injection, schedule: Q04DX002 (ip), vehicle: Klucel (hydroxypropylcellulose) (HPC)
# [5] = endpoint: mean survival time, dose: 200.0 mg/kg/injection, schedule: Q04DX002 (ip), vehicle: Klucel (hydroxypropylcellulose) (HPC)
# [6] = endpoint: mean survival time, dose: 400.0 mg/kg/injection, schedule: Q04DX002 (ip), vehicle: Klucel (hydroxypropylcellulose) (HPC)
# [7] = endpoint: mean survival time, dose: 100.0 mg/kg/injection, schedule: Q01DX009 (ip), vehicle: Klucel (hydroxypropylcellulose) (HPC)
smiles,measurement,setting,value
CCOC(=O)OCCc1ccccc1,T/C,"endpoint: mean survival time, dose: 100.0 mg/kg/injection, schedule: Q01DX001 (ip), vehicle: carboxymethylcellulose (CMC)",106 % of control
same,T/C,"endpoint: mean survival time, dose: 100.0 mg/kg/injection, schedule: Q01DX009 (ip), vehicle: carboxymethylcellulose (CMC)",103 % of control and 92 % of control
same,T/C,"endpoint: mean survival time, dose: 100.0 mg/kg/injection, schedule: Q04DX002 (ip), vehicle: carboxymethylcellulose (CMC)",97 % of control and 109 % of control
same,T/C,"endpoint: mean survival time, dose: 100.0 mg/kg/injection, schedule: Q04DX003 (ip), vehicle: carboxymethylcellulose (CMC)",98 % of control
same,T/C,"endpoint: mean survival time, dose: 200.0 mg/kg/injection, schedule: Q01DX001 (ip), vehicle: carboxymethylcellulose (CMC)",100 % of control
same,T/C,"endpoint: mean survival time, dose: 200.0 mg/kg/injection, schedule: Q01DX009 (ip), vehicle: carboxymethylcellulose (CMC)",95 % of control and 103 % of control
same,T/C,"endpoint: mean survival time, dose: 200.0 mg/kg/injection, schedule: Q04DX002 (ip), vehicle: carboxymethylcellulose (CMC)",98 % of control and 100 % of control
same,T/C,"endpoint: mean survival time, dose: 200.0 mg/kg/injection, schedule: Q04DX003 (ip), vehicle: carboxymethylcellulose (CMC)",98 % of control
same,T/C,"endpoint: mean survival time, dose: 400.0 mg/kg/injection, schedule: Q01DX001 (ip), vehicle: carboxymethylcellulose (CMC)",105 % of control
same,T/C,"endpoint: mean survival time, dose: 400.0 mg/kg/injection, schedule: Q01DX009 (ip), vehicle: carboxymethylcellulose (CMC)",93 % of control and 98 % of control
same,T/C,"endpoint: mean survival time, dose: 400.0 mg/kg/injection, schedule: Q04DX002 (ip), vehicle: carboxymethylcellulose (CMC)",97 % of control and 106 % of control
same,T/C,"endpoint: mean survival time, dose: 400.0 mg/kg/injection, schedule: Q04DX003 (ip), vehicle: carboxymethylcellulose (CMC)",102 % of control
Cc1nc(N)[nH]c(=O)c1CCc1ccccc1,T/C,[1],100 % of control
same,T/C,[2],94 % of control
same,T/C,[3],100 % of control
O=C(C=C(C(F)(F)F)C(F)(F)F)c1cccc([N+](=O)[O-])c1,T/C,"endpoint: mean survival time, dose: 6.25 mg/kg/injection, schedule: Q01DX009 (ip), vehicle: saline with Tween-80",101 % of control
same,T/C,"endpoint: mean survival time, dose: 12.5 mg/kg/injection, schedule: Q01DX009 (ip), vehicle: saline with Tween-80",103 % of control
same,T/C,"endpoint: mean survival time, dose: 25.0 mg/kg/injection, schedule: Q01DX009 (ip), vehicle: saline with Tween-80",97 % of control
NC(CS(=O)c1ccc(Cl)cc1)C(=O)O (stereo not given),T/C,"endpoint: mean survival time, dose: 100.0 mg/kg/injection, schedule: Q04DX003 (ip), vehicle: saline with Tween-80",97 % of control
same,T/C,"endpoint: mean survival time, dose: 200.0 mg/kg/injection, schedule: Q04DX003 (ip), vehicle: saline with Tween-80",92 % of control
CC1c2c(c(-c3ccccc3)c3ccccc3c2-c2ccccc2)S1(=O)=O (stereo not given),T/C,"endpoint: mean survival time, dose: 25.0 mg/kg/injection, schedule: Q04DX002 (ip), vehicle: Klucel (hydroxypropylcellulose) (HPC)",99 % of control
same,T/C,"endpoint: mean survival time, dose: 50.0 mg/kg/injection, schedule: Q04DX002 (ip), vehicle: Klucel (hydroxypropylcellulose) (HPC)",96 % of control
same,T/C,[4],94 % of control and 99 % of control and 111 % of control
same,T/C,[5],94 % of control and 99 % of control and 114 % of control
same,T/C,[6],99 % of control and 111 % of control
O=C(Nc1ccccn1)Nc1ccc([N+](=O)[O-])cc1[N+](=O)[O-],T/C,[4],108 % of control
same,T/C,[5],104 % of control
same,T/C,[6],97 % of control
Nc1c2c(nc3ccccc13)CCCC2,T/C,"endpoint: mean survival time, dose: 0.78 mg/kg/injection, schedule: Q04DX003 (ip), vehicle: saline",101 % of control
same,T/C,"endpoint: mean survival time, dose: 1.56 mg/kg/injection, schedule: Q01DX009 (ip), vehicle: saline",98 % of control
same,T/C,"endpoint: mean survival time, dose: 1.56 mg/kg/injection, schedule: Q04DX003 (ip), vehicle: saline",93 % of control
same,T/C,"endpoint: mean survival time, dose: 3.12 mg/kg/injection, schedule: Q01DX009 (ip), vehicle: saline",93 % of control
same,T/C,"endpoint: mean survival time, dose: 3.12 mg/kg/injection, schedule: Q04DX003 (ip), vehicle: saline",104 % of control
same,T/C,"endpoint: mean survival time, dose: 6.25 mg/kg/injection, schedule: Q04DX003 (ip), vehicle: saline",96 % of control
same,T/C,"endpoint: mean survival time, dose: 12.5 mg/kg/injection, schedule: Q04DX003 (ip), vehicle: saline",95 % of control
Oc1ccccc1C=Nc1ccccc1S.[Cu+2],T/C,"endpoint: mean survival time, dose: 100.0 mg/kg/injection, schedule: Q01DX001 (ip), vehicle: other",97 % of control
same,T/C,"endpoint: mean survival time, dose: 200.0 mg/kg/injection, schedule: Q01DX001 (ip), vehicle: other",94 % of control
same,T/C,"endpoint: mean survival time, dose: 400.0 mg/kg/injection, schedule: Q01DX001 (ip), vehicle: other",96 % of control
NC(=O)N/N=C/c1ccc[n+]([O-])c1,T/C,"endpoint: mean survival time, dose: 37.5 mg/kg/injection, schedule: Q04DX002 (ip), vehicle: saline with Tween-80",102 % of control
same,T/C,"endpoint: mean survival time, dose: 75.0 mg/kg/injection, schedule: Q04DX002 (ip), vehicle: saline with Tween-80",108 % of control
same,T/C,"endpoint: mean survival time, dose: 100.0 mg/kg/injection, schedule: Q04DX002 (ip), vehicle: saline with Tween-80",86 % of control
same,T/C,"endpoint: mean survival time, dose: 150.0 mg/kg/injection, schedule: Q04DX002 (ip), vehicle: saline with Tween-80",97 % of control
same,T/C,"endpoint: mean survival time, dose: 400.0 mg/kg/injection, schedule: Q04DX002 (ip), vehicle: saline with Tween-80",96 % of control
COc1cccc2c1C(=O)c1c(O)c3c(c(O)c1C2=O)CC(O)(C(=O)CO)CC3OC1CC(N)C(O)C(C)O1 (stereo not given),T/C,"endpoint: mean survival time, dose: 0.5 mg/kg/injection, schedule: Q01DX008 (ip), vehicle: saline",151 % of control
same,T/C,"endpoint: mean survival time, dose: 1.0 mg/kg/injection, schedule: Q01DX008 (ip), vehicle: saline",158 % of control
same,T/C,"endpoint: mean survival time, dose: 2.0 mg/kg/injection, schedule: Q01DX008 (ip), vehicle: saline",209 % of control
same,T/C,"endpoint: mean survival time, dose: 4.0 mg/kg/injection, schedule: Q01DX008 (ip), vehicle: saline",98 % of control
same,T/C,"endpoint: median survival time, dose: 4.0 mg/kg/injection, schedule: Q01DX005 (ip), vehicle: water",121 % of control
same,T/C,"endpoint: median survival time, dose: 6.0 mg/kg/injection, schedule: Q01DX005 (ip), vehicle: other",115 % of control
same,T/C,"endpoint: median survival time, dose: 11.0 mg/kg/injection, schedule: Q01DX005 (ip), vehicle: other",123 % of control
same,T/C,"endpoint: median survival time, dose: 11.0 mg/kg/injection, schedule: Q01DX005 (ip), vehicle: water",177 % of control
same,T/C,"endpoint: median survival time, dose: 11.0 mg/kg/injection, schedule: Q04DX003 (ip), vehicle: water",115 % of control
same,T/C,"endpoint: median survival time, dose: 16.0 mg/kg/injection, schedule: Q01DX005 (ip), vehicle: other",123 % of control
same,T/C,"endpoint: median survival time, dose: 19.0 mg/kg/injection, schedule: Q01DX005 (ip), vehicle: water",177 % of control
same,T/C,"endpoint: median survival time, dose: 31.0 mg/kg/injection, schedule: Q01DX005 (ip), vehicle: water",155 % of control
same,T/C,"endpoint: median survival time, dose: 31.0 mg/kg/injection, schedule: Q04DX003 (ip), vehicle: water",121 % of control
same,T/C,"endpoint: median survival time, dose: 51.6 mg/kg/injection, schedule: Q01DX005 (ip), vehicle: water",152 % of control
same,T/C,"endpoint: median survival time, dose: 52.0 mg/kg/injection, schedule: Q04DX003 (ip), vehicle: water",194 % of control
same,T/C,"endpoint: median survival time, dose: 87.0 mg/kg/injection, schedule: Q04DX003 (ip), vehicle: water",157 % of control and 172 % of control
same,T/C,"endpoint: median survival time, dose: 145.0 mg/kg/injection, schedule: Q04DX003 (ip), vehicle: water",110 % of control
same,T/C,"endpoint: median survival time, dose: 242.0 mg/kg/injection, schedule: Q04DX003 (ip), vehicle: water",89 % of control
CCCCCCCCCCCCCC(=O)O,T/C,[1],92 % of control
same,T/C,[2],94 % of control
same,T/C,[3],95 % of control
O=C(Nc1cccc(Cl)c1Cl)N(CCO)C1CCCCC1,T/C,[7],107 % of control
same,T/C,"endpoint: mean survival time, dose: 200.0 mg/kg/injection, schedule: Q01DX009 (ip), vehicle: Klucel (hydroxypropylcellulose) (HPC)",96 % of control
same,T/C,"endpoint: mean survival time, dose: 400.0 mg/kg/injection, schedule: Q01DX009 (ip), vehicle: Klucel (hydroxypropylcellulose) (HPC)",94 % of control
O=C(C[n+]1cc2ccccc2c2ccccc21)c1ccccc1,T/C,[7],95 % of control
C/C=C(\CC)C1(CCC)C(=O)NC(=O)N(C)C1=O (stereo not given),T/C,"endpoint: mean survival time, dose: 75.0 mg/kg/injection, schedule: Q01DX001 (ip), vehicle: other",103 % of control
same,T/C,"endpoint: mean survival time, dose: 75.0 mg/kg/injection, schedule: Q01DX001 (ip), vehicle: saline",95 % of control
same,T/C,"endpoint: mean survival time, dose: 150.0 mg/kg/injection, schedule: Q01DX001 (ip), vehicle: other",103 % of control
same,T/C,"endpoint: mean survival time, dose: 150.0 mg/kg/injection, schedule: Q01DX001 (ip), vehicle: saline",106 % of control
same,T/C,"endpoint: mean survival time, dose: 300.0 mg/kg/injection, schedule: Q01DX001 (ip), vehicle: other",101 % of control
same,T/C,"endpoint: mean survival time, dose: 300.0 mg/kg/injection, schedule: Q01DX001 (ip), vehicle: saline",106 % of control
O=C(COc1ccc(Cl)c(Cl)c1)Nc1ccc[n+](CC(=O)Nc2ccc(S(=O)(=O)F)cc2)c1,T/C,"endpoint: mean survival time, dose: 100.0 mg/kg/injection, schedule: Q01DX009 (ip), vehicle: saline with Tween-80",87 % of control
same,T/C,"endpoint: mean survival time, dose: 200.0 mg/kg/injection, schedule: Q01DX009 (ip), vehicle: saline with Tween-80",87 % of control
same,T/C,"endpoint: mean survival time, dose: 400.0 mg/kg/injection, schedule: Q01DX009 (ip), vehicle: saline with Tween-80",89 % of control
O=C(Nc1ccccc1-c1ccc([N+](=O)[O-])cc1)c1ccc(Cl)c(Cl)c1,T/C,"endpoint: mean survival time, dose: 100.0 mg/kg/injection, schedule: Q04DX003 (ip), vehicle: water",93 % of control
same,T/C,"endpoint: mean survival time, dose: 200.0 mg/kg/injection, schedule: Q04DX003 (ip), vehicle: water",93 % of control
same,T/C,"endpoint: mean survival time, dose: 400.0 mg/kg/injection, schedule: Q04DX003 (ip), vehicle: water",93 % of control
